Source: PMC12505902, “Inhibitors of trehalose-6-phosphate synthase activity in fungal pathogens compromise thermal tolerance pathways” (mBio, 2025)

Tested on: C. auris (B11220)
Test: MIC dose-response assay in YPD
Assay type: cell-based
Conditions: Candidozyma auris
Experimental: We tested the effects of 4456dh on live cells by determining the minimal inhibitory concentration causing 80% growth reduction (MIC80). Wild-type (WT) C. albicans and C. auris cells were incubated with 4456dh in yeast-peptone-dextrose (YPD) medium at 42°C and 39°C, respectively (Fig. 4A). […] 4456dh inhibited the growth of C. auris with an MIC80 of 7 mM at 39°C (Fig. 4A). The MIC80 increased at 30°C to greater than 13 mM (Fig. S7A).
Fig 4 4456dh inhibits the growth of Candida and Cryptococcus species. Two-fold dose response assays were performed against (A) C. albicans at 42°C and C. auris at 39°C, (B) C. glabrata at 42°C, and (C) C. neoformans, C. deneoformans, and C. gattii at 37°C. 4456dh was administered at the concentrations indicated. Cultures were grown in YPD at the listed temperatures for 48 hours for Candida species and 72 hours for Cryptococcus species. Experimental temperatures reflect the temperatures at which the fungi experience heat stress. Left: relative growth of treated samples was calculated by averaging technical triplicates and normalizing the OD600 of each treated well to the average OD600 of the untreated WT controls, after the absorbance due to the compound was subtracted. The MIC80 values, calculated based on the OD600 values, are indicated in the white text on each heat map. […]
102 determined by identifying the inflection point of the derivative data. […]
104 The catalytic activity of C. albicans Tps1 and C. neoformans Tps1 was measured via a continuous […]
110 bottomed 96-well microtiter plates and the decrease in absorbance at 340 nm during the initial
111 reaction rate was recorded using a plate reader (Tecan). The decrease in absorbance was
112 analyzed for the first 200s of the kinetic reaction. […]
116 the overnight cultures was quantified by measuring the OD600 and corrected for the background
117 absorbance of the medium. Antifungal potency for 4456dh was assessed by minimum inhibitory […]
124 technical replicates. Growth, as determined by a reading of absorbance at 600 nm, was
125 normalized to untreated controls and was corrected for the absorbance of 4456dh in the YPD […]

Q: What does the source list for Cn1cc(-c2csc(NC(=O)Cc3ccccn3)n2)cn1 [Compound 4456dh]?
A: MIC80 (30°C, YPD): > 13 mM; MIC80 (39°C, YPD, 48 hours): 7 mM; MIC80 (Supplemental Table 5, This publication): 2780 mg/L
